According to patent US11857519B2, “Compounds and methods for the targeted degradation of enhancer of zeste homolog 2 polypeptide” (Arvinas Operations, Inc., priority 2016, dated 2024):

Target: T1, EZH2 (Homo sapiens, UniProt Q15910)
T1 construct: Protocol of the Cellular Assay of Target Protein Degradation (VCaP Cells, ELISA); endogenous in cells; host or cells: VCaP cells
Experiment: Cellular assay of target protein degradation (VCaP cells, ELISA)
Type: cell-based
Conditions: 4 hours, protein degradation range at indicated concentration (relative to DMSO control)
Summary of the method: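 EZH2 level measured by sandwich ELISA (TMB, A450 minus A562 background) in lysates of VCaP cells. Cells had been cultured at least 3 days in 5% CSS RPMI before 4 h compound exposure in 0.1% DMSO.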

T1 sequence (Q15910 whole entry): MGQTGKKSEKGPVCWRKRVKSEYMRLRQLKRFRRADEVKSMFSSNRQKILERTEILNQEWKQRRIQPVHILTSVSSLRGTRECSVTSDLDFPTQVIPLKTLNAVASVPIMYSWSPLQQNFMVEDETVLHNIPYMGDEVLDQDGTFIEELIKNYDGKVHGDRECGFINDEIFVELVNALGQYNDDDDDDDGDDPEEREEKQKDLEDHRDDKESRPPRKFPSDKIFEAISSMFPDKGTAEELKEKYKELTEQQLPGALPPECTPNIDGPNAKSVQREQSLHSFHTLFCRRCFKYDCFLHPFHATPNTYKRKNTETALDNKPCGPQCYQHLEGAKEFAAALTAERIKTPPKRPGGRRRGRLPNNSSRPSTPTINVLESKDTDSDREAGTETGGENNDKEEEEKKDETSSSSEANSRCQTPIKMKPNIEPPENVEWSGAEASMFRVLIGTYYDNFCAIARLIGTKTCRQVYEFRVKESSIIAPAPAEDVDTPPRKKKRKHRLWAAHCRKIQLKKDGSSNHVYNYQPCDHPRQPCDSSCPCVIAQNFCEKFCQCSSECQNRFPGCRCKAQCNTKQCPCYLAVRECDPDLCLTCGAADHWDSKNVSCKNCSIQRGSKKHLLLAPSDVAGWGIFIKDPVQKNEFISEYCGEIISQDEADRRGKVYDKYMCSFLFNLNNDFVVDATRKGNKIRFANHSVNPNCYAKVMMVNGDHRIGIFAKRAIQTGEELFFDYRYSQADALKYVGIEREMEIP
T1 sequence (O75530 whole entry partner): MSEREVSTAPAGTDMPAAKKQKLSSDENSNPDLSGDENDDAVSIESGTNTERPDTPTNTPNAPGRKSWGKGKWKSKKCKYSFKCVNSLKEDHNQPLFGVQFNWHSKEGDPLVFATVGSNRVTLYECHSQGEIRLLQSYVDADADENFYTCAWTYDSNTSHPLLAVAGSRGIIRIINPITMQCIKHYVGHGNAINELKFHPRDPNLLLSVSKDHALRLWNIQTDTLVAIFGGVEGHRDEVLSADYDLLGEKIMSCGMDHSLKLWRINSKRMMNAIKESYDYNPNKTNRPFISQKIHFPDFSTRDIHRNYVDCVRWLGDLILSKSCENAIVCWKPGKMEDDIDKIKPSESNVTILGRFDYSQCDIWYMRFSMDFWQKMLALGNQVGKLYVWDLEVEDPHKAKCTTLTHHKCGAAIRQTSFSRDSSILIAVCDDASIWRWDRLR
T1 sequence (Q15022 whole entry partner): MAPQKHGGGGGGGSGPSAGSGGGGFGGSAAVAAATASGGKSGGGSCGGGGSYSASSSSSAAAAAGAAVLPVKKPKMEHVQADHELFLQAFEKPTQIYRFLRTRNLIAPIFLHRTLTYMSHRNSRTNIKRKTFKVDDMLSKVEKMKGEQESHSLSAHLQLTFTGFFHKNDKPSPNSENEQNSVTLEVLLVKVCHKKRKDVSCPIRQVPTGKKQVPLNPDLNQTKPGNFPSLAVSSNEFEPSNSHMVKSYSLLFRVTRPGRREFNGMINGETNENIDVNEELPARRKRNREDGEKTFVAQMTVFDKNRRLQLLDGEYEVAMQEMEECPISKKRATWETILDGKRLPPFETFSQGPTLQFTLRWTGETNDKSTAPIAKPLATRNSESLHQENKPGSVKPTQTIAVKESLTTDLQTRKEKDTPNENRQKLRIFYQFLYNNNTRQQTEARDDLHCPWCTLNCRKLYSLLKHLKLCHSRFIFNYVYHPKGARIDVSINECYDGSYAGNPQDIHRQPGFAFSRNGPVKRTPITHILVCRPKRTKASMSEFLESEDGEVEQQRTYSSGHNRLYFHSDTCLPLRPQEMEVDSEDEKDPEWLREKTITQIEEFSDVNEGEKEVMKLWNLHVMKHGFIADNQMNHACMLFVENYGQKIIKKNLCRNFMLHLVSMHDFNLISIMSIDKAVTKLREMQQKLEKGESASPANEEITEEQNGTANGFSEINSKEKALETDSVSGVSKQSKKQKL

percent target protein degradation class	Compound
A (A = degradation more than 60%)	CCN(c1cc(-c2ccc(CN3CCN(CCOCC(=O)N[C@H](C(=O)N4C[C@H](O)C[C@H]4C(=O)N[C@@H](C)c4ccc(-c5scnc5C)cc4)C(C)(C)C)CC3)cc2)cc(C(=O)NCc2c(C)cc(C)[nH]c2=O)c1C)C1CCOCC1 [Compound 116, (2S,4R)-1-((S)-2-(2-(2-(4-((3′-(((4,6-dimethyl-2-oxo-1,2-dihydropyridin-3-yl)methyl)carbamoyl)-5′-(ethyl(tetrahydro-2H-pyran-4-yl)amino)-4′-methyl-[1,1′-biphenyl]-4-yl)methyl)piperazin-1-yl)ethoxy)acetamido)-3,3-dimethylbutanoyl)-4-hydroxy-N-((S)-1-(4-(4-methylthiazol-5-yl)phenyl)ethyl)pyrrolidine-2-carboxamide]
B (B = degradation between 30% and 60%)	CCN(c1cc(-c2ccc(OCCOCCOCCOCCOCCNc3cccc4c3C(=O)N(C3CCC(=O)NC3=O)C4=O)cc2)cc(C(=O)NCc2c(C)cc(C)[nH]c2=O)c1C)C1CCOCC1 (centres unmarked) [Compound 18, N-[(4,6-dimethyl-2-oxo-1,2-dihydropyridin-3-yl)methyl]-5-[4-({1-[2-(2,6-dioxopiperidin-3-yl)-1,3-dioxo-2,3-dihydro-1H-isoindol-4-yl]-4,7,10,13-tetraoxa-1-azapentadecan-15-yl}oxy)phenyl]-3-[ethyl(oxan-4-yl)amino]-2-methylbenzamide]
A (A = degradation more than 60%)	CCN(c1cc(-c2ccc(OCCOCCCOc3ccc4c(c3)C(=O)N(C3CCC(=O)NC3=O)C4=O)cc2)cc(C(=O)NCc2c(C)cc(C)[nH]c2=O)c1C)C1CCOCC1 (centres unmarked) [Compound 58, N-[(4,6-dimethyl-2-oxo-1,2-dihydropyridin-3-yl)methyl]-5-{4-[2-(3-{[2-(2,6-dioxopiperidin-3-yl)-1,3-dioxo-2,3-dihydro-1H-isoindol-5-yl]oxy}propoxy)ethoxy]phenyl}-3-[ethyl(oxan-4-yl)amino]-2-methylbenzamide]
B (B = degradation between 30% and 60%)	CCN(c1cc(-c2ccc(OCCOCCOCCOCCOCCOCC(=O)N[C@H](C(=O)N3C[C@H](O)C[C@H]3C(=O)NCc3ccc(-c4scnc4C)cc3)C(C)(C)C)cc2)cc(C(=O)NCc2c(C)cc(C)[nH]c2=O)c1C)C1CCOCC1 [Compound 15, (2S,4R)-1-[(2S)-2-{1-[4-(3-{[(4,6-dimethyl-2-oxo-1,2-dihydropyridin-3-yl)methyl]carbamoyl}-5-[ethyl(oxan-4-yl)amino]-4-methylphenyl)phenyl]-1,4,7,10,13,16-hexaoxaoctadecan-18-amido}-3,3-dimethylbutanoyl]-4-hydroxy-N-{[4-(4-methyl-1,3-thiazol-5-yl)phenyl]methyl}pyrrolidine-2-carboxamide]
B (B = degradation between 30% and 60%)	CCN(c1cc(-c2ccc(OCCOCCNc3cccc4c3C(=O)N(C3CCC(=O)NC3=O)C4=O)cc2)cc(C(=O)NCc2c(C)cc(C)[nH]c2=O)c1C)C1CCOCC1 (centres unmarked) [Compound 34, N-[(4,6-dimethyl-2-oxo-1,2-dihydropyridin-3-yl)methyl]-5-{4-[2-(2-{[2-(2,6-dioxopiperidin-3-yl)-1,3-dioxo-2,3-dihydro-1H-isoindol-4-yl]amino}ethoxy)ethoxy]phenyl}-3-[ethyl(oxan-4-yl)amino]-2-methylbenzamide]
B (B = degradation between 30% and 60%)	CCN(c1cc(-c2ccc(OCCCOc3cc(-c4scnc4C)ccc3CNC(=O)[C@@H]3C[C@@H](O)CN3C(=O)[C@H](C(C)C)N3Cc4ccccc4C3=O)cc2)cc(C(=O)NCc2c(C)cc(C)[nH]c2=O)c1C)C1CCOCC1 [Compound 90, (2S,4R)-N-(2-(3-((3′-(((4,6-dimethyl-2-oxo-1,2-dihydropyridin-3-yl)methyl)carbamoyl)-5′-(ethyl(tetrahydro-2H-pyran-4-yl)amino)-4′-methyl-[1,1′-biphenyl]-4-yl)oxy)propoxy)-4-(4-methylthiazol-5-yl)benzyl)-4-hydroxy-1-((S)-3-methyl-2-(1-oxoisoindolin-2-yl)butanoyl)pyrrolidine-2-carboxamide]
A (A = degradation more than 60%)	CCN(c1cc(-c2ccc(CCCOCCOc3cc(C(C(=O)N4C[C@H](O)C[C@H]4C(=O)N[C@@H](C)c4ccc(-c5scnc5C)cc4)C(C)C)on3)cc2)cc(C(=O)NCc2c(C)cc(C)[nH]c2=O)c1C)C1CCOCC1 (stereo partly drawn) [Compound 111, (2S,4R)-1-(2-(3-(2-(3-(3′-(((4,6-dimethyl-2-oxo-1,2-dihydropyridin-3-yl)methyl)carbamoyl)-5′-(ethyl(tetrahydro-2H-pyran-4-yl)amino)-4′-methyl-[1,1′-biphenyl]-4-yl)propoxy)ethoxy)isoxazol-5-yl)-3-methylbutanoyl)-4-hydroxy-N-((S)-1-(4-(4-methylthiazol-5-yl)phenyl)ethyl)pyrrolidine-2-carboxamide]
A (A = degradation more than 60%)	CCN(c1cc(-c2ccc(OCCCOCCCOCC(=O)N[C@H](C(=O)N3C[C@H](O)C[C@H]3C(=O)NCc3ccc(-c4scnc4C)cc3)C(C)(C)C)cc2)cc(C(=O)NCc2c(C)cc(C)[nH]c2=O)c1C)C1CCOCC1 [Compound 48, (2S,4R)-1-[(2S)-2-[2-(3-{3-[4-(3-{[(4,6-dimethyl-2-oxo-1,2-dihydropyridin-3-yl)methyl]carbamoyl}-5-[ethyl(oxan-4-yl)amino]-4-methylphenyl)phenoxy]propoxy}propoxy)acetamido]-3,3-dimethylbutanoyl]-4-hydroxy-N-{[4-(4-methyl-1,3-thiazol-5-yl)phenyl]methyl}pyrrolidine-2-carboxamide]
B (B = degradation between 30% and 60%)	CCN(c1cc(-c2ccc(OCCCOCCOc3cc(-c4scnc4C)ccc3CNC(=O)[C@@H]3C[C@@H](O)CN3C(=O)[C@H](C(C)C)N3Cc4ccccc4C3=O)cc2)cc(C(=O)NCc2c(C)cc(C)[nH]c2=O)c1C)C1CCOCC1 [Compound 56, (2S,4R)-N-{[2-(2-{3-[4-(3-{[(4,6-dimethyl-2-oxo-1,2-dihydropyridin-3-yl)methyl]carbamoyl}-5-[ethyl(oxan-4-yl)amino]-4-methylphenyl)phenoxy]propoxy}ethoxy)-4-(4-methyl-1,3-thiazol-5-yl)phenyl]methyl}-4-hydroxy-1-[(2S)-3-methyl-2-(1-oxo-2,3-dihydro-1H-isoindol-2-yl)butanoyl]pyrrolidine-2-carboxamide]
B (B = degradation between 30% and 60%)	CCN(c1cc(-c2ccccc2OCCOCCOCCOCCOCCOCCNc2cccc3c2C(=O)N(C2CCC(=O)NC2=O)C3=O)cc(C(=O)NCc2c(C)cc(C)[nH]c2=O)c1C)C1CCOCC1 (centres unmarked) [Compound 25, N-[(4,6-dimethyl-2-oxo-1,2-dihydropyridin-3-yl)methyl]-5-[2-({1-[2-(2,6-dioxopiperidin-3-yl)-1,3-dioxo-2,3-dihydro-1H-isoindol-4-yl]-4,7,10,13,16-pentaoxa-1-azaoctadecan-18-yl}oxy)phenyl]-3-[ethyl(oxan-4-yl)amino]-2-methylbenzamide]
A (A = degradation more than 60%)	CCN(c1cc(-c2ccc(OCCCCCCOc3cc(C(C(=O)N4C[C@H](O)C[C@H]4C(=O)N[C@@H](C)c4ccc(-c5scnc5C)cc4)C(C)C)on3)cc2)cc(C(=O)NCc2c(C)cc(C)[nH]c2=O)c1C)C1CCOCC1 (stereo partly drawn) [Compound 106, (2S,4R)-1-(2-(3-((6-((3′-(((4,6-dimethyl-2-oxo-1,2-dihydropyridin-3-yl)methyl)carbamoyl)-5′-(ethyl(tetrahydro-2H-pyran-4-yl)amino)-4′-methyl-[1,1′-biphenyl]-4-yl)oxy)hexyl)oxy)isoxazol-5-yl)-3-methylbutanoyl)-4-hydroxy-N-((S)-1-(4-(4-methylthiazol-5-yl)phenyl)ethyl)pyrrolidine-2-carboxamide]

Compound	percent target protein degradation class
CCN(c1cc(-c2ccc(OCCCCOCCOCCOc3cc(-c4scnc4C)ccc3CNC(=O)[C@@H]3C[C@@H](O)CN3C(=O)[C@H](C(C)C)N3Cc4ccccc4C3=O)cc2)cc(C(=O)NCc2c(C)cc(C)[nH]c2=O)c1C)C1CCOCC1 [Compound 55, (2S,4R)-N-({2-[2-(2-{4-[4-(3-{[(4,6-dimethyl-2-oxo-1,2-dihydropyridin-3-yl)methyl]carbamoyl}-5-[ethyl(oxan-4-yl)amino]-4-methylphenyl)phenoxy]butoxy}ethoxy)ethoxy]-4-(4-methyl-1,3-thiazol-5-yl)phenyl}methyl)-4-hydroxy-1-[(2S)-3-methyl-2-(1-oxo-2,3-dihydro-1H-isoindol-2-yl)butanoyl]pyrrolidine-2-carboxamide]	B (B = degradation between 30% and 60%)
CCN(c1cc(-c2ccc(OCCCCOc3ccc4c(c3)C(=O)N(C3CCC(=O)NC3=O)C4=O)cc2)cc(C(=O)NCc2c(C)cc(C)[nH]c2=O)c1C)C1CCOCC1 (centres unmarked) [Compound 60, N-[(4,6-dimethyl-2-oxo-1,2-dihydropyridin-3-yl)methyl]-5-[4-(4-{[2-(2,6-dioxopiperidin-3-yl)-1,3-dioxo-2,3-dihydro-1H-isoindol-5-yl]oxy}butoxy)phenyl]-3-[ethyl(oxan-4-yl)amino]-2-methylbenzamide]	A (A = degradation more than 60%)
Cc1cc(C)c(CNC(=O)c2c(C)n(C(C)C3CCN(C(=O)COCCOCCOCC(=O)N[C@H](C(=O)N4C[C@H](O)C[C@H]4C(=O)NCc4ccc(-c5scnc5C)cc4)C(C)(C)C)CC3)c3ccccc23)c(=O)[nH]1 (stereo partly drawn) [Compound 9, N-[(4,6-dimethyl-2-oxo-1,2-dihydropyridin-3-yl)methyl]-1-{1-[1-(2-{2-[2-({[(2S)-1-[(2S,4R)-4-hydroxy-2-({[4-(4-methyl-1,3-thiazol-5-yl)phenyl]methyl}carbamoyl)pyrrolidin-1-yl]-3,3-dimethyl-1-oxobutan-2-yl]carbamoyl}methoxy)ethoxy]ethoxy}acetyl)piperidin-4-yl]ethyl}-2-methyl-1H-indole-3-carboxamide]	B (B = degradation between 30% and 60%)
